Measurements from article PMC9502993 (Pharmaceuticals, 2022).
“And” between values parts separate entries of the source, which are not always exact repeats. Equal values may be shown once. Read-outs that look alike come from different tables or passages of the source.

How the values were obtained:
Caco-2 cells [1] = test: Cell viability assay (Orangu WST-8, formazan-based); conditions: for effect on cell viability: 48 h
HepG2 cells [2] = test: In Vitro Micronuclei Plus assay (flow cytometry)
Chikungunya virus = tested on: Chikungunya virus; set-up: method as in PMID 31931103; conditions: Chikungunya virus ref 5; read-out: EC50 (50% reduction of the virus titer); cited from earlier work
primary dendritic cells = tested on: primary dendritic cells; set-up: method as in PMID 35336926; conditions: primary dendritic cells ref 9; cited from earlier work
[3] = tested on: lung cancer cell line A549; set-up: method as in PMID 31931103; conditions: A549 ref 5; cited from earlier work
[4] = Cell viability assay (Orangu WST-8, formazan-based); conditions: human, HEK293T cells
HEK293T cells [5] = test: as above; conditions: 48 h
HepG2 cells [6] = test: as above
Method: For the cell viability assay, HepG2 cells were incubated with various
normalized to the absorbance of the respective DMSO value to calculate cell viability. The experiments were performed in biological
(1 picture or pasted object on this page, not shown here)

HEK293T cells [7] = test: cAMP assay (GloSensor luciferase), GPCR off-target
[8] = tested on: non-transformed primary cells; conditions: several non-transformed primary cells ref 6, 20, 30; cited from earlier work
Caki-2 cells = test: Cell viability assay (Orangu WST-8, formazan-based); conditions: 48 h
[9] = as above; conditions: human, Caki-2 cells
Caco-2 cell barrier [10] = test: Cell barrier integrity (TEER, cellZscope2); assay type: cell-based
[11] = Stability assay in human liver microsomes; assay type: in vitro ADME; conditions: pH 7.4, human liver microsomes 0.5 mg/mL
Method: The reaction was started with 1 mM NADPH diluted in potassium phosphate buffer. As control, samples without NAPDH were used. After various time points (0 h, 1 h, 2 h, 4 h), the reaction was stopped by adding ice-cold acetonitrile. The samples were centrifuged (5 min, 4 °C, 10,000× g) and supernatant was stored at −80 °C until the remaining drug concentration was determined by LC-MS/MS as described in detail below. The concentrations of the drugs were plotted against time and the elimination constant (k) was calculated from the slope (m):m = −k
Equation to determine half-life:T1/2 = 0.693/K
Equation to determine intrinsic clearance:Cl = Ln(2) × 1000/T1/2/protein concentration

[12] = tested on: colon cancer cell line HT29; conditions: HT29 ref 17; cited from earlier work
HCoV-229E = HCoV-229E ref 6; read-out: EC50 (50% reduction of the virus titer); cited from earlier work
primary monocytes = tested on: primary monocytes; set-up: method as in PMID 35336926; conditions: primary monocytes ref 9; cited from earlier work
[13] = mice, formulated in hydroxypropyl-β-cyclodextrin, intraperitoneal ref 30; cited from earlier work
HeLa = HeLa ref 6; cited from earlier work
Calu-3 cells [14] = test: Cellular uptake assay (LC-MS/MS)
primary M2 macrophages = tested on: primary M2 macrophages; set-up: method as in PMID 35336926; conditions: primary M2 macrophages ref 9; read-out: CC50 (no cytotoxic effects up to); cited from earlier work
[15] = tested on: various viruses, such as corona- and Ebolaviruses; conditions: cited from earlier work
Caco-2 cells [16] = test: Cellular uptake assay (LC-MS/MS)
HEK293T cells [17] = test: Ca2+-release assay (Fluo-8-AM), GPCR off-target; assay type: cell-based
Method: Next, 50,000 HEK293T cells were seeded in a 96-well poly-D-lysine-coated plate and incubated at 37 °C for 24 h. Cells were incubated with 4 µM Fluo-8-AM in HBSS for 1 h at 37 °C. After 1 h, the Fluo-8/HBSS was replaced by 100 µL HBSS. Five images per second were taken using an ImageXpress Micro Confocal High Content Imaging System (Molecular Device, San Jose, CA, USA). […] An image was taken every second for the next 20 s. The MetaXpress Software Version 6.7.1.157 (San Jose, CA, USA) was used to analyze the data. A threshold of fluorescence intensity was defined using cells before treatment and all cells with a fluorescence signal above the threshold level were counted and related to all cells.

[18] = tested on: hepatocellular carcinoma cell line Huh-7; conditions: Huh-7 ref 6; cited from earlier work
HEK293T cells [19] = test: IP3 assay, GPCR off-target; assay type: cell-based
MERS-CoV = MERS-CoV ref 6; read-out: EC50 (50% reduction of the virus titer); cited from earlier work
[20] = tested on: lung fibroblast cell line MRC-5; set-up: method as in PMID 31931103; conditions: MRC-5 ref 5; cited from earlier work
P-glycoprotein = molecular target: T1, P-glycoprotein (Homo sapiens, UniProt P08183); conditions: cited from earlier work
T1 construct: endogenous in cells; host or cells: Caco-2 (high P-gp), Calu-3 (low P-gp)
T1 sequence (P08183 whole entry): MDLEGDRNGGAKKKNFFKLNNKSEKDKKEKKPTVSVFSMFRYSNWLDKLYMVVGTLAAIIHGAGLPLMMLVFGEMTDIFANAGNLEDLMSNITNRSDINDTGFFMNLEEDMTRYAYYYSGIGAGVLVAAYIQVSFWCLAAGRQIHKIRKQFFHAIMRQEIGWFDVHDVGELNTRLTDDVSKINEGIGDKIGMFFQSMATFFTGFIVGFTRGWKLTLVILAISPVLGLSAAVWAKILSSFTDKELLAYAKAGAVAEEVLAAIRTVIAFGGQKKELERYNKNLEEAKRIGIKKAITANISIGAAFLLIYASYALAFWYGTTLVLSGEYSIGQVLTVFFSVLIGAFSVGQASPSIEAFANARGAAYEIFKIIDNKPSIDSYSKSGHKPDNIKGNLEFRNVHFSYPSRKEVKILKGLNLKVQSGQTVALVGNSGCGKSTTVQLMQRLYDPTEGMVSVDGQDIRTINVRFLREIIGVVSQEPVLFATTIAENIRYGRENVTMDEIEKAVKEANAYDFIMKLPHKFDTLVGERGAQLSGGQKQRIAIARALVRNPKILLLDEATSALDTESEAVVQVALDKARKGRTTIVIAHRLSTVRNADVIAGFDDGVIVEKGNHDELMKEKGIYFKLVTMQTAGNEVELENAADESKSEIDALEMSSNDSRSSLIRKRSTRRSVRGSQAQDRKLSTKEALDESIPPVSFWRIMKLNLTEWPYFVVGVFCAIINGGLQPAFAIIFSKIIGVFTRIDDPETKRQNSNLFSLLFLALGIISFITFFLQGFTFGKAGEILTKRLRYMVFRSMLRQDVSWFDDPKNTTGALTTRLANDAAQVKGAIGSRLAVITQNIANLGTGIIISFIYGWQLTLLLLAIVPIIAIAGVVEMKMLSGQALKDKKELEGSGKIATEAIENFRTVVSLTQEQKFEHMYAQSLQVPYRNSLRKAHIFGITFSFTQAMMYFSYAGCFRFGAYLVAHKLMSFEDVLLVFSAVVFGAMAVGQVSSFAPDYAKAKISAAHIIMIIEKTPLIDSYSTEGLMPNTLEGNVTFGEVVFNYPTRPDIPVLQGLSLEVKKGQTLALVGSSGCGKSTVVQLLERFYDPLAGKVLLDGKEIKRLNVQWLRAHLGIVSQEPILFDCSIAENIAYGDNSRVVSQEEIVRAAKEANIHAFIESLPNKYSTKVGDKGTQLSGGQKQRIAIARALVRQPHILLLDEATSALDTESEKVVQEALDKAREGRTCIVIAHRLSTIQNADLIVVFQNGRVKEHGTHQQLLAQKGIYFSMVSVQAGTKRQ

Calu-3 cells [21] = test: Cell viability assay (Orangu WST-8, formazan-based)
Calu-3 cell barrier [22] = test: Transport assay across cell barrier
T cells = tested on: T cells; set-up: method as in PMID 35336926, PMID 1360266; conditions: T cells ref 9, 34; cited from earlier work
Caco-2 cell barrier [23] = test: Transport assay across cell barrier
primary M1 macrophages = tested on: primary M1 macrophages; set-up: method as in PMID 35336926; conditions: primary M1 macrophages ref 9; cited from earlier work
Caco-2 cell barrier [24] = conditions: human, 200 µM
Calu-3 cell barrier [25] = conditions: human, 24 h, 200 µM
primary immune cells = primary immune cells ref 9; cited from earlier work
Calu-3 cells [26] = conditions: human, 25 µM
Caco-2 cells [27] = conditions: human, 25 µM
MDA-MB-231 cell line = tested on: MDA-MB-231 cell line; set-up: method as in PMID 32470302; conditions: MDA-MB-231, 100 nM ref 39; cited from earlier work
[28] = 10 µM ionomycin, positive control

With `COC(=O)[C@H]1[C@@H](O)[C@@]2(O)c3c(OC)cc(O[C@@H]4O[C@@H]([C@H](O)CO)CO[C@H]4OC)cc3O[C@@]2(c2ccc(OC)cc2)[C@@H]1c1ccccc1` [silvestrol] the “effect on cell viability” value (Caco-2 cells [1]) was “did not reduce viability below 50%”, the “effect on cell viability” value (Caco-2 cells [1]; listed as Silvestrol) was “only minor effects” and the reduction of viability (Caco-2 cells [1]; concentrations up to 1000 nM) was “about 50%”. The “change of cytotoxicity on inhibition of P-glycoprotein” value (Caco-2 cells [1]; preincubated with 1 µM cyclosporine 60 min, then 48 h) was “increased the cytotoxic potential”, the “clastogenic effects (micronuclei)” value (HepG2 cells [2]; 50 nM) was “clastogenic effects” and the “aneugenic effects (hypodiploid cells)” value (HepG2 cells [2]; silvestrol concentrations up to 50 nM) was “no aneugenic effects”. For the same molecule, the EC50 (Chikungunya virus) was about 5 nM, the “cytotoxicity (no cytotoxic effects up to)” value (primary dendritic cells) was over 100 nM and the CC50 [3] was 9.42 nM. The CC50 at 48 h [4] was 16 nM, the CC50 (HEK293T cells [5]) was 15.9 nM and the “effect on cell viability” value (HepG2 cells [6]; 48 h) was “only minor effects”. For the same molecule, the reduction of viability (HepG2 cells [6]; concentrations up to 1000 nM) was “about 50%”, the “induction of cAMP synthesis” value (HEK293T cells [7]; silvestrol 10, 50, 100 nM) was “did not significantly induce” and the cytotoxicity [8] was “no major cytotoxicity”. The CC50 (Caki-2 cells) was 37.2 nM, the CC50 at 48 h [9] was 37 nM and the “effect on TEER readings (cell barrier integrity)” value (Caco-2 cell barrier [10]; 50 and 100 nM, 20 h) was “reduced TEER readings only slightly”. The half-life at 100 nM ([11]; 100 nM) was 11.6 ± 1.2 h, the microsomal CLint at 100 nM ([11]; 100 nM, read-out: intrinsic clearance) was 1.7 ± 0.5 µL/min/mg and the CC50 [12] was 0.7 nM. For the same molecule, the EC50 (HCoV-229E) was about 5 nM, the CC50 (primary monocytes) was 29 nM and the intraperitoneal systemic availability [13] was 100%. For the same molecule, the CC50 (HeLa) was 5 nM, the “uptake related to used amount of silvestrol” value (Calu-3 cells [14]; at maximum) was “≈ 3.7%” and the “cellular uptake (maximum)” value (Calu-3 cells [14]; concentration- and time-dependent) was “about 7.7 pg/µg protein”. The CC50 (primary M2 macrophages) was over 100 nM, the “reduction of virus titers” value [15] was “up to 4 log phases” and the EC50 ([15]; read-out: EC50 for inhibition of virus replication) was 1 to 100 nM. For the same molecule, the EC50 ([15]; various viruses, such as corona- and Ebolaviruses (abstract), read-out: EC50) was about 5 nM, the “cellular uptake (maximum)” value (Caco-2 cells [16]; 25 nM, 2 and 4 h) was “about 2.5 pg/µg protein” and the “uptake related to used silvestrol” value (Caco-2 cells [16]; 25 nM, at maximum) was “≈ 1.3%”. For the same molecule, the “change of intracellular silvestrol level on inhibition of P-glycoprotein” value (Caco-2 cells [16]; preincubated with 1 µM cyclosporine 60 min) was “leads to an increase in intracellular silvestrol levels”, the “induction of Ca2+-release” value (HEK293T cells [17]; silvestrol 10, 50, 100 nM) was “did not significantly induce” and the CC50 [18] was 30 nM. For the same molecule, the “induction of IP3 synthesis” value (HEK293T cells [19]; silvestrol) was “did not significantly induce”, the EC50 (MERS-CoV) was about 5 nM and the “cytotoxicity (no cytotoxicity up to)” value [20] was over 50 µM. The “substrate of P-glycoprotein” value (P-glycoprotein) was “substrate”, the “effect on cell viability” value (Calu-3 cells [21]; 48 h) was “did not reduce viability below 50%” and the reduction of viability (Calu-3 cells [21]; concentrations up to 1000 nM) was “about 50%”. The transport rate (Calu-3 cell barrier [22]; 50 nM, 24 h) was 7.8%, the transport rate (Calu-3 cell barrier [22]; 100 nM, 4 h) was 0.8% and the transport rate (Calu-3 cell barrier [22]; 100 nM, 24 h) was 10.6%. The “cytotoxicity (no cytotoxic effects up to)” value (T cells) was over 100 nM, the transport rate (Caco-2 cell barrier [23]; 50 nM, 24 h) was 1.3% and the transport rate (Caco-2 cell barrier [23]; 100 nM, 4 h) was 0.5%. For the same molecule, the transport rate (Caco-2 cell barrier [23]; 100 nM, 24 h) was 1.9% and the CC50 (primary M1 macrophages) was 45.6 nM and 46 nM.
In the case of `CC(C)Cc1ccc(C(C)C(=O)O)cc1` (centres unmarked) [ibuprofen, reference compound], the “genotoxicity by the criteria of OECD guideline 487” value (HepG2 cells [2]; positive and negative control) is reported as “no effects”.
In the case of `NC(=O)N1c2ccccc2C=Cc2ccccc21` [carbamazepine], the transport rate (Caco-2 cell barrier [24]; 4 h) is reported as “approx. 45%” and the transport rate (Calu-3 cell barrier [25]) is reported as 74%.
Work on `NC(N)=Nc1nc(CSCCC(N)=NS(N)(=O)=O)cs1` [famotidine] yielded a transport rate (Caco-2 cell barrier [24]; 4 h) of 0.7%, a transport rate (Caco-2 cell barrier [24]; 24 h) of 1.3% and a transport rate (Calu-3 cell barrier [25]) of 8.3%.
In the case of `O=C(O)CN(CCOCCOCCN(CC(=O)O)CC(=O)O)CC(=O)O` [EGTA, reference compound], the “effect on TEER readings (cell barrier integrity)” value (Caco-2 cell barrier [10]; 10 mM, positive control) is reported as “caused a drop in TEER readings”.
With `C[C@H](CCC(=O)O)C[C@H](C)C[C@H](C)C(=O)/C=C(\O)[C@H](C)C[C@H](C)C/C=C/[C@@H](C)[C@@H](O)[C@@H](C)[C@@H](O)C[C@@H]1CC[C@@](C)([C@H]2CC[C@@](C)([C@@H](C)O)O2)O1` [ionomycin, reference compound] the “induction of Ca2+-release” value (HEK293T cells [17]; [28]) was “induced significant increases” and the “induction of IP3 synthesis” value (HEK293T cells [19]; [28]) was “induced significant increases”.
In the case of `CONC(=O)[C@H]1[C@@H](O)[C@@]2(O)c3c(OC)cc(OC)cc3O[C@@]2(c2ccc(OC)cc2)[C@@H]1c1ccccc1` [CR31B (-)], the “cytotoxicity compared with silvestrol” value (primary immune cells) is given as “comparable cytotoxic effects to those of silvestrol”.
In the case of `C=C[C@@]1(C)CC(=O)[C@]2(O)[C@@]3(C)[C@@H](O)CCC(C)(C)[C@@H]3[C@H](O)[C@H](OC(C)=O)[C@@]2(C)O1` [forskolin, reference compound], the “induction of cAMP formation” value (HEK293T cells [7]; 5 µM forskolin, positive control) is reported as “induced significant increases”.
With `Cc1ccc(-c2cc(C(F)(F)F)nn2-c2ccc(S(N)(=O)=O)cc2)cc1` [celecoxib, reference compound] the half-life at 10 µM ([11]; 10 µM) was 2.3 ± 0.5 h, the microsomal CLint at 10 µM ([11]; 10 µM, read-out: intrinsic clearance) was 10.5 ± 2 µL/min/mg and the uptake rate (Calu-3 cells [26]) was “about 2.5 ng/µg protein”. The “substrate of P-glycoprotein” value (P-glycoprotein) was “not a substrate of P-glycoprotein” and the uptake rate (Caco-2 cells [27]) was “about 2.5 ng/µg protein”.
For `COc1cc2c(c(OC)n1)[C@]1(O)[C@H](O)[C@H](CN(C)C)[C@@H](c3ccccc3)[C@]1(c1ccc(C#N)cc1)O2` [zotatifin, reference compound], the “clastogenic effects (micronuclei)” value (HepG2 cells [2]; 10 nM only, not concentration dependent) is given as “some clastogenic and aneugenic effects” and the “effect on cell cycle and apoptosis” value (MDA-MB-231 cell line) is given as “induces a G2 cell cycle block and apoptosis”.
